The record followed here is patent US20250270170A1, “2,3-DIMETHOXY-5-METHYL-1,4-BENZOQUINONE ALKYL ALCOHOL DERIVATIVE AND USE THEREOF” (BEIJING ANJIANXI BIO-MEDICAL TECHNOLOGY CO., LTD., priority 2021, published 2025).

The nature of series [1]: Example 8: serum UREA at the end of the assay. The format is in vivo, nude mice. The settings on record: DDP 5 mg/kg i.p. QW×4. An excerpt:
The assay animals, calculation of tumor volume (TV), end of assay, data recording, calculation formula of tumor growth inhibition rate TGI (%), and statistical analysis method were the same as those in Example 3; the preparation of the administration formulation of the compound of formula (I) was the same as that in Example 5. [table]

Another series deals with NCI-H460 cells. Put plainly: Cell EDU proliferation assay, NCI-H460. The conditions noted are these: 150 μM. It counts as cell-based, human. The method, then: The compound of formula (I) at a concentration of 150 μM was co-cultured with the cells for 42 h, and then the FBS concentration in the FBS stimulation well was increased to 20%. The cells were cultured for another 6 h, and then detected using a Cell-Light EDUApollo567 kit.
(1) Cells in the logarithmic growth phase were taken, and inoculated into a 24-well culture plate at 1×10^4 cells per well. The culture plate was cultured in a 37° C. incubator under the condition of 5% CO2, and drug was added according to the assay design when the cells adhered to the wall.
(2) After the drug treatment, the Cell-Light EDU Apollo567 kit was taken out. The reagent A in the kit was diluted with 1640 complete culture medium at a ratio of 1000:1 to prepare a 50 μM EDU culture medium, 300 μl of which was configured to each well of the 24-well plate. The 24-well plate was taken out from the incubator, and the original culture medium was aspirated with a vacuum aspirator. […]
(12) 150 μl of PBS was added to each well to wash once, and the PBS was discarded. Then, 200 μl of PBS was added, and the plate was placed on an inverted fluorescence microscope to take pictures. 6 fields of view were taken for each well under a 200× field of view, and the proportion of EDU-positive cells among 100 cells was calculated. […]

Regarding `N.N.[Cl][Pt][Cl]` [DDP, cisplatin], the “Serum UREA Mean ± SE” value in series [1] stood at 13.43 ± 1.04 mmol/L.

As for `COC1=C(OC)C(=O)C(CCCCCCCCCCOC(=O)Cc2c(C)n(C(=O)c3ccc(Cl)cc3)c3ccc(OC)cc23)=C(C)C1=O` [compound of formula (I)], the “proportion of proliferating cells (EDU)” value in the series with NCI-H460 cells (48 hours, vs CTL (0 μM)) is on record as “significantly reduced”. Further, in the series with NCI-H460 cells (FBS increased to 20% for last 6 h), the “cell proliferation under FBS stimulation (EDU)” value is reported as “can inhibit the cell proliferation effect”.
